In patent US20260318831A1 (University of Cincinnati, priority 2023, published 2026):

Assays:
[1] = n-octanol/water partition coefficient by shake-flask ultraviolet spectrophotometry; assay type: physicochemical; conditions: room temperature, read-out: n-octanol/water partition coefficient (Log P)
Description: The measurements of hydrophilicity. Hydrophilicity was determined by a shake-flask ultraviolet spectrophotometry method to measure the n-octanol/water partition coefficients (Log P). First, 25 mL of n-octanol and 25 mL of water were mixed at room temperature. After 24 h, the standard solutions of the sample (10 μM) were prepared by using the preceding saturated n-octanol phase and water phase solution, respectively. Later, the test solutions were prepared by mixing 10 ml of standard solution in n-octanol and 10 ml of standard solution in water. After shaking, the mixture of test solution was centrifuged for 5 min. The n-octanol phase layer was separated from the water phase layer and the absorbance of the two layers was measured by Agilent Cary 8453 spectrophotometer. Based on the Beer-Lambert law, the concentrations of the sample in the n-octanol phase (Co) and the water phase (Cw) were calculated. Finally, the n-octanol/water partition coefficients (Log P) were further calculated by using the following equation: […]

[2] = tested on: endolysosomes in HeLa cells; assay: Resolution limit in LIGHTNING confocal images; assay type: cell-based
Text: The fluorescence images of PyQPMe were compared before and after the LIGHTNING module. […] To test the resolution limit of PyQPMe, confocal images were stochastically selected, and underlined the areas with luminescence in the images (FIG. 4A, 4C). The FWHMs (full width at half maximum) of these bright puncta fluorescence of PyQPMe-stained endolysosomes and later endosomes/lysosomes are down to 174 nm and 184 nm (FIG. 4B, 4D), respectively.
(§1) Leica Stellaris 8 Confocal imaging. High-resolution images were acquired on a commercial Leica Stellaris 8 Confocal Microscope under LIGHTNING mode. Laser powers were set at 10% intensity for 405 nm and 640 nm channels. The objective was 63×/1.4. High-resolution images were captured from the randomly selected field of view and analyzed with Leica LAS X and ImageJ software. All the images were exported on the Auto scale of the Leica LAS X software. Cells were seeded on glassed-bottomed cell dishes (MatTek) for 24 hours. Cells stained with PyQPMe (20 nM, 10 min) were treated with Wortmannin (1 μM, 24 h), CCCP ([…], 24 h), rapamycin (0.5 μM, 24 h), chloroquine (25 μM, 30 min), and NH4Cl (50 mM, 30 min). All PCC values were analyzed in the CellProfiler.

HeLa cells [3] = assay: Photobleaching comparison of LTR and PyQPMe; assay type: cell-based; conditions: 100% laser power, after 40 s of scans; % of original value
Text: FIGS. 4A-4G depict the characterization of imaging properties of PyQPMe-stained endolysosomes. FIG. 4A. Confocal image of PyQPMe-stained endolysosomes and fluorescence intensity profile (FIG. 4B) of the write line in FIG. 4A. FIG. 4C. Confocal image of PyQPMe-stained late endosomes/lysosomes and fluorescence intensity profile (FIG. 4D) of the write line in FIG. 4C. FIG. 4E. Confocal images of HeLa cells labeled with LTR and PyQPMe and 3D fluorescence intensity plots of rectangles of integration. FIG. 4F. Continuous imaging of HeLa cells labeled with LTR or PyQPMe at 100% laser intensity for photobleaching, and each scan time was 10 s, images were captured under a red channel. FIG. 4G. Normalized fluorescence intensity of LTR and PyQPMe in FIG. 4F.
Resistance to photobleaching is a crucial property of probes that determines whether they can be used for long-term fluorescence tracking. To characterize this property, a photobleaching comparison study between LTR and PyQPMe was done in HeLa cells (FIG. 4F).
Leica Stellaris 8 Confocal imaging. High-resolution images were acquired on a commercial Leica Stellaris 8 Confocal Microscope under LIGHTNING mode. Laser powers were set at 10% intensity for 405 nm and 640 nm channels. […] High-resolution images were captured from the randomly selected field of view and analyzed with Leica LAS X and ImageJ software. […] All PCC values were analyzed in the CellProfiler.

[4] = Photostability under irradiation in neutral and acidic solutions; assay type: physicochemical; conditions: 300 s irradiation
Text: Next, the effect of potential biochemical species on the fluorescence intensity of PyQPMe in both pH 3.0 and 8.2 buffer solutions was investigated. […] Fluorescence spectra of PyQPMe in various solvents with different polarities were also obtained. […] Furthermore, the photostability of PyQPMe was investigated under different pH conditions. […] Taken together, the above photophysical results identify that PyQPMe is a pH-sensitive probe, well suited for studying endolysosome dynamics via high-resolution imaging techniques.

HeLa cells [5] = assay: Confocal imaging of PyQPMe uptake by endocytosis; assay type: cell-based
Description: In some aspects, the probes of the present disclosure can be administered to living cells, either in vitro or in vivo. To take advantage of the absorption and emission spectra of PyQPMe, this probe was administered in high-resolution microscopy for living cells. The toxicity of PyQPMe was examined at first before characterizing its imaging properties. Cell Counting Kit-8 (CCK-8) was used to investigate the viability of HeLa cells stained with PyQPMe. […] Next, PyQPMe was characterized by Leica Stellaris Confocal Microscope in the LIGHTNING module for high-resolution imaging. […] The signal tended to be endolysosomes because endolysosomes have a low pH range from 4.7 to 6.3. […] Since low temperatures can inhibit endocytosis, experiments at a lower temperature were performed.
as §1

Q: With `CN1CCN(c2ccc(/C=C/c3ccc4cc(-c5ccncc5)ccc4[n+]3C)cc2)CC1` [PyQPMe, (E)-1-methyl-2-(4-(4-methylpiperazin-1-yl)styryl)-6-(pyridin-4-yl)quinolin-1-ium] as the molecule, how does the logP at 10 µM [1] read?
A: ~-0.65

Q: And the “FWHM of puncta, endolysosomes” value ([2]; PyQPMe-stained endolysosomes)?
A: 174 nm

Q: And the “FWHM of puncta, late endosomes/lysosomes” value ([2]; PyQPMe-stained late endosomes/lysosomes)?
A: 184 nm

Q: And the “fluorescence signal remaining after photobleaching” value (HeLa cells [3])?
A: 22%

Q: What about the “photostability: change of fluorescence intensity” value [4] of the same molecule?
A: negligible change

Q: And the “fluorescence signal inside HeLa cells at high concentration” value (HeLa cells [5]; 2 μM PyQPMe)?
A: same fluorescence signal inside HeLa cells could be observed

Q: What about the “endolysosomes detected at low temperature” value (HeLa cells [5]; 4° C. vs 37° C.) of the same molecule?
A: Fewer endolysosomes were detected

Q: What about the “fluorescence in HeLa cells” value (HeLa cells [5]; 405 nm excitation, 10 min incubation) of the same molecule?
A: punctate fluorescence signals in the cytoplasm
